The values below come from patent US20250163104A1, “MACROCYCLIC IMMUNOMODULATORS” (priority 2021, published 2025).

Molecules are shown by their SMILES. Where a SMILES comes first, the peptide text is derived from it. Bridges are numbered along the chain shown (N, C = ends). [ ]: non-standard residue; d: D form. The star is where a group is joined. Phe(4-COOH) = N[C@@H](Cc1ccc(C(=O)O)cc1)C(=O)O; Trp(7-F) = N[C@@H](Cc1c[nH]c2c(F)cccc12)C(=O)O; Bip = N[C@@H](Cc1ccc(-c2ccccc2)cc1)C(=O)O; Phe(3-Me) = Cc1cccc(C[C@H](N)C(=O)O)c1; Val(3-OH) = CC(C)(O)[C@H](N)C(=O)O; aIle = CC[C@@H](C)[C@H](N)C(=O)O; 4Pal = N[C@@H](Cc1ccncc1)C(=O)O; Cha = N[C@@H](CC1CCCCC1)C(=O)O; dCha = N[C@H](CC1CCCCC1)C(=O)O; Carboxymethyl = O=C(O)C*; Nle = CCCC[C@H](N)C(=O)O; Orn = NCCC[C@H](N)C(=O)O; Dab = NCC[C@H](N)C(=O)O; Nva = CCC[C@H](N)C(=O)O; Dap = NC[C@H](N)C(=O)O; Propargyl = C#CC*

A word on the IC50: it is the concentration that inhibits the measured activity by half.

For this assay, the target named is T1, human PD-1 / PD-L1-Ig binding on Jurkat cell line over-expressing human PD-1 (Jurkat-PD-1) (Homo sapiens, UniProt Q15116).
T1 construct: expressed in transfected cells; host or cells: Jurkat
The experiment in a line: Jurkat-PD-1 Cell Binding High-Content Screening Assay (CBA). In kind it is cell-based. The note with it: Jurkat-PD-1 cells, PE-labeled PD-L1-Ig 20 nM final; read-out: Jurkat HPD1_PDL1 IC50. Summed up:
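Cell-bound PE-labeled PD-L1-Ig (20 nM final, 1 h) measured by high-content imaging after fixation and Hoechst 33342 counterstain. Compound was applied first for 2 h at 37° C. to Jurkat cells over-expressing human PD-1 in DMEM with 10% FCS.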

T1 sequence (Q15116 25-288): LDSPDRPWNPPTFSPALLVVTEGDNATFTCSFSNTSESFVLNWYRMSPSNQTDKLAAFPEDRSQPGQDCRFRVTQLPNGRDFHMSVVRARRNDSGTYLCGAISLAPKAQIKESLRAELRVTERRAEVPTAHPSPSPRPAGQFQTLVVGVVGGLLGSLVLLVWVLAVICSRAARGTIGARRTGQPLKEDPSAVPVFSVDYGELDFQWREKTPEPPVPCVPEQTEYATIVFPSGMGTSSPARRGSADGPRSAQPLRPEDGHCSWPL

Consider `CC(C)C[C@H]1NC(=O)[C@H](CCCN)NC(=O)[C@H](CCN)NC(=O)[C@H](Cc2ccc(-c3ccccc3)cc2)NC(=O)[C@H](C(C)C)NC(=O)[C@H](Cc2c[nH]c3ccccc23)NC(=O)[C@H](CC(=O)O)NC(=O)[C@H](Cc2ccc(O)cc2)NC(=O)[C@H](CC(N)=O)NC(=O)CSC[C@@H](C(=O)N[C@@H](C)C(N)=O)NC(=O)[C@H]([C@@H](C)O)NC(=O)[C@H](C(C)C)NC(=O)[C@H](CC2CCCCC2)NC(=O)[C@H](CCN)NC1=O` [Compound 1379], for which the IC50 stood at 33 nM.
As for `Cc1cccc(C[C@@H]2NC(=O)[C@H](CC(=O)O)NC(=O)[C@H](Cc3ccc(OCC(=O)O)cc3)NC(=O)[C@H](CN)NC(=O)CSC[C@@H](C(=O)NCC(N)=O)NC(=O)[C@H](CO)NC(=O)[C@H](C(C)C)NC(=O)[C@H](CC(C)C)NC(=O)[C@H](CCN)NC(=O)[C@@H](CC(C)C)NC(=O)[C@H](CCCN)NC(=O)[C@H](C(C)C)NC(=O)[C@H](Cc3ccc(-c4ccccc4)cc3)NC(=O)[C@H](CC(C)C)NC2=O)c1` [Compound 1264] ({CH2CO}-[Dap]Y(Carboxymethyl)D[Phe(3-Me)]L[Bip]V[Orn][dL][Dab]LVSCG-NH2; thioether N-14), the figure is 4.5 nM; as for `CC(C)C[C@H]1NC(=O)[C@H](CCCN)NC(=O)[C@H](CCN)NC(=O)[C@H](Cc2ccc(-c3ccccc3)cc2)NC(=O)[C@H](C(C)C)NC(=O)[C@H](Cc2c[nH]c3ccccc23)NC(=O)[C@H](CC(=O)O)NC(=O)[C@H](Cc2ccncc2)NC(=O)[C@H](CN)NC(=O)CSC[C@@H](C(=O)N[C@@H](C)C(N)=O)NC(=O)[C@H]([C@@H](C)O)NC(=O)[C@H](C(C)C)NC(=O)[C@H](CC2CCCCC2)NC(=O)[C@H](CCN)NC1=O` [Compound 1387], 24.9 nM.
For the molecule `CCC[C@@H]1NC(=O)CSC[C@@H](C(=O)N[C@@H](CCN)C(N)=O)NC(=O)[C@H](CO)NC(=O)[C@H](C(C)(C)O)NC(=O)[C@H](CC2CCCCC2)NC(=O)[C@H](CCN)NC(=O)[C@@H](CC(C)C)NC(=O)[C@H](CCCN)NC(=O)[C@H](Cc2ccc(OCC(=O)O)cc2)NC(=O)[C@H](Cc2ccc(-c3ccccc3)cc2)NC(=O)[C@H](Cc2ccc(OCC(=O)O)cc2)NC(=O)[C@H](Cc2cccc(C)c2)NC(=O)[C@H](CC(=O)O)NC(=O)[C@H](Cc2ccc(C(=O)O)cc2)NC1=O` [Compound 2080] ({CH2CO}-[Nva][Phe(4-COOH)]D[Phe(3-Me)]Y(Carboxymethyl)[Bip]Y(Carboxymethyl)[Orn][dL][Dab][Cha][Val(3-OH)]SC[Dab]-NH2; thioether N-14), the IC50 was determined as 4.2 nM.
The same measure for `Cc1cccc(C[C@@H]2NC(=O)[C@H](CC(=O)O)NC(=O)[C@H](Cc3ccc(OCC(=O)O)cc3)NC(=O)[C@H](Cc3ccncc3)NC(=O)CSC[C@@H](C(=O)N[C@@H](CCN)C(N)=O)NC(=O)[C@H]([C@@H](C)O)NC(=O)[C@H](C(C)(C)O)NC(=O)[C@H](CC3CCCCC3)NC(=O)[C@H](CCN)NC(=O)[C@@H](CC(C)C)NC(=O)[C@H](CCCN)NC(=O)[C@H](Cc3ccc(OCC(=O)O)cc3)NC(=O)[C@H](Cc3ccc(-c4ccccc4)cc3)NC(=O)[C@H](Cc3ccc(OCC(=O)O)cc3)NC2=O)c1` [Compound 2066] ({CH2CO}-[4Pal]Y(Carboxymethyl)D[Phe(3-Me)]Y(Carboxymethyl)[Bip]Y(Carboxymethyl)[Orn][dL][Dab][Cha][Val(3-OH)]TC[Dab]-NH2; thioether N-14): 6.1 nM; for `CCCC[C@@H]1NC(=O)[C@H](CC(N)=O)NC(=O)[C@@H](CC(C)C)NC(=O)[C@H](CN)NC(=O)[C@H](C(C)C)NC(=O)[C@H](Cc2ccc(-c3ccccc3)cc2)NC(=O)[C@H](CC(C)C)NC(=O)[C@H](Cc2c[nH]c3ccccc23)NC(=O)[C@H](CC(=O)O)NC(=O)[C@H](Cc2ccncc2)NC(=O)[C@H](CN)NC(=O)CSC[C@@H](C(=O)NCC(N)=O)NC(=O)[C@H](CO)NC(=O)[C@H](C(C)C)NC1=O` [Compound 1400] ({CH2CO}-[Dap][4Pal]DWL[Bip]V[Dap][dL]N[Nle]VSCG-NH2; thioether N-14): 29.1 nM.
As for `CC(C)C[C@H]1NC(=O)[C@H](CCCN)NC(=O)[C@H](CCC(=O)O)NC(=O)[C@H](Cc2ccc(-c3ccccc3)cc2)NC(=O)[C@H](C(C)C)NC(=O)[C@H](Cc2c[nH]c3ccccc23)NC(=O)[C@H](CC(=O)O)NC(=O)[C@H](Cc2ccc(-c3cccc(C(=O)O)c3)cc2)NC(=O)[C@H](CN)NC(=O)CSC[C@@H](C(=O)N[C@@H](C)C(N)=O)NC(=O)[C@H]([C@@H](C)O)NC(=O)[C@H](C(C)C)NC(=O)[C@H](CC2CCCCC2)NC(=O)[C@H](CCN)NC1=O` [Compound 2162], the figure is 7.7 nM.
As for `CC[C@@H](C)[C@@H]1NC(=O)[C@H](Cc2ccc(-c3ccccc3)cc2)NC(=O)[C@H](C(C)C)NC(=O)[C@H](Cc2c[nH]c3ccccc23)NC(=O)[C@H](CC(=O)O)NC(=O)[C@H](Cc2ccc(C(=O)O)cc2)NC(=O)[C@H](Cc2ccncc2)NC(=O)CSC[C@@H](C(=O)N[C@@H](C)C(N)=O)NC(=O)[C@H]([C@@H](C)O)NC(=O)[C@H](C(C)C)NC(=O)[C@H](CC2CCCCC2)NC(=O)[C@H](CCN)NC(=O)[C@@H](CC2CCCCC2)NC(=O)[C@H](CCCN)NC1=O` [Compound 1624] ({CH2CO}-[4Pal][Phe(4-COOH)]DWV[Bip][aIle][Orn][dCha][Dab][Cha]VTCA-NH2; thioether N-14), the figure is 26.9 nM; as for `Cc1cccc(C[C@@H]2NC(=O)[C@H](CC(=O)O)NC(=O)[C@H](Cc3ccc(C(=O)O)cc3)NC(=O)[C@H](Cc3ccncc3)NC(=O)CSC[C@@H](C(=O)N[C@@H](C)C(N)=O)NC(=O)[C@H]([C@@H](C)O)NC(=O)[C@H](C(C)C)NC(=O)[C@H](CC3CCCCC3)NC(=O)[C@H](CCN)NC(=O)[C@@H](CC(C)C)NC(=O)[C@H](CCCN)NC(=O)[C@H](CCC(=O)O)NC(=O)[C@H](Cc3ccc(-c4ccccc4)cc3)NC(=O)[C@H](C(C)C)NC2=O)c1` [Compound 1417], 7 nM; as for `CC(C)C[C@H]1NC(=O)[C@H](CCCN)NC(=O)[C@H](C(C)C)NC(=O)[C@H](Cc2ccc(-c3ccccc3)cc2)NC(=O)[C@H](C(C)C)NC(=O)[C@H](Cc2c[nH]c3ccccc23)NC(=O)[C@H](CC(=O)O)NC(=O)[C@H](Cc2ccc(OCC(=O)O)cc2)NC(=O)[C@H](Cc2ccc(OCC(=O)O)cc2)NC(=O)CSC[C@@H](C(=O)N[C@@H](C)C(N)=O)NC(=O)[C@H](CN)NC(=O)[C@H](C(C)C)NC(=O)[C@H](CC2CCCCC2)NC(=O)[C@H](CCN)NC1=O` [Compound 1740] ({CH2CO}-Y(Carboxymethyl)Y(Carboxymethyl)DWV[Bip]V[Orn][dL][Dab][Cha]V[Dap]CA-NH2; thioether N-14), 6.1 nM.
For `Cc1cccc(C[C@@H]2NC(=O)[C@H](CC(=O)O)NC(=O)[C@H](Cc3ccc(C(=O)O)cc3)NC(=O)[C@H](Cc3ccncc3)NC(=O)CSC[C@@H](C(=O)N[C@@H](CCN)C(N)=O)NC(=O)[C@H](CO)NC(=O)[C@H](C(C)(C)O)NC(=O)[C@H](CC3CCCCC3)NC(=O)[C@H](CCN)NC(=O)[C@@H](CC(C)C)NC(=O)[C@H](CCCN)NC(=O)[C@H](Cc3ccc(OCC(=O)O)cc3)NC(=O)[C@H](Cc3ccc(-c4ccccc4)cc3)NC(=O)[C@H](Cc3ccc(C(=O)O)cc3)NC2=O)c1` [Compound 2624] ({CH2CO}-[4Pal][Phe(4-COOH)]D[Phe(3-Me)][Phe(4-COOH)][Bip]Y(Carboxymethyl)[Orn][dL][Dab][Cha][Val(3-OH)]SC[Dab]-NH2; thioether N-14), the IC50 amounted to 5.7 nM.
As for `C#CCOc1ccc(C[C@@H]2NC(=O)[C@H](Cc3ccc(-c4ccccc4)cc3)NC(=O)[C@H](Cc3ccc(C(=O)O)cc3)NC(=O)[C@H](Cc3cccc(C)c3)NC(=O)[C@H](CC(=O)O)NC(=O)[C@H](Cc3ccc(C(=O)O)cc3)NC(=O)[C@H](CCC)NC(=O)CSC[C@@H](C(=O)N[C@@H](CCN)C(N)=O)NC(=O)[C@H](CCC(=O)O)NC(=O)[C@H](C(C)C)NC(=O)[C@H](CC3CCCCC3)NC(=O)[C@H](CCN)NC(=O)[C@@H](CC(C)C)NC(=O)[C@H](CCCN)NC2=O)cc1` [Compound 1831] ({CH2CO}-[Nva][Phe(4-COOH)]D[Phe(3-Me)][Phe(4-COOH)][Bip]Y(Propargyl)[Orn][dL][Dab][Cha]VEC[Dab]-NH2; thioether N-14), the IC50 is 4.8 nM.
For the molecule `CC(C)C[C@@H]1NC(=O)[C@H](CCN)NC(=O)[C@@H](CC(C)C)NC(=O)[C@H](CCN)NC(=O)[C@H](C(C)C)NC(=O)[C@H](Cc2ccc(-c3ccccc3)cc2)NC(=O)[C@H](C(C)C)NC(=O)[C@H](Cc2c[nH]c3ccccc23)NC(=O)[C@H](CC(N)=O)NC(=O)[C@H](Cc2ccc(O)cc2)NC(=O)[C@H](CC(N)=O)NC(=O)CSC[C@@H](C(=O)NCC(N)=O)NC(=O)[C@H](CO)NC(=O)[C@H](C(C)C)NC1=O` [Compound 1083] ({CH2CO}-NYNWV[Bip]V[Dab][dL][Dab]LVSCG-NH2; thioether N-14), the half-maximal inhibitory concentration (IC50) came to 16.8 nM.
As for `CC(C)C[C@H]1NC(=O)[C@H](CCCN)NC(=O)[C@H](C(C)C)NC(=O)[C@H](Cc2ccc(-c3ccccc3)cc2)NC(=O)[C@H](C(C)C)NC(=O)[C@H](Cc2c[nH]c3c(F)cccc23)NC(=O)[C@H](CC(=O)O)NC(=O)[C@H](Cc2ccc(OCC(=O)O)cc2)NC(=O)[C@H](CN)NC(=O)CSC[C@@H](C(=O)N[C@@H](CCN)C(N)=O)NC(=O)[C@H]([C@@H](C)O)NC(=O)[C@H](C(C)C)NC(=O)[C@H](CC2CCCCC2)NC(=O)[C@H](CCN)NC1=O` [Compound 2020] ({CH2CO}-[Dap]Y(Carboxymethyl)D[Trp(7-F)]V[Bip]V[Orn][dL][Dab][Cha]VTC[Dab]-NH2; thioether N-14), the IC50 is 13.1 nM.
The same measure for `CC(C)C[C@H]1NC(=O)[C@H](CCCN)NC(=O)[C@H](CCCNC(N)=O)NC(=O)[C@H](Cc2ccc(-c3ccccc3)cc2)NC(=O)[C@H](C(C)C)NC(=O)[C@H](Cc2c[nH]c3ccccc23)NC(=O)[C@H](CC(=O)O)NC(=O)[C@H](Cc2ccc(O)c([N+](=O)[O-])c2)NC(=O)[C@H](CN)NC(=O)CSC[C@@H](C(=O)N[C@@H](C)C(N)=O)NC(=O)[C@H]([C@@H](C)O)NC(=O)[C@H](C(C)C)NC(=O)[C@H](CC2CCCCC2)NC(=O)[C@H](CCN)NC1=O` [Compound 2113]: 14.9 nM.
